Data published in ChEMBL document CHEMBL5465560, “Selectivity Literature for EUbOPEN Chemogenomic Library” (2024).

Key:
[1] = biological target: T1, Myosin light chain kinase family member 4 (Homo sapiens) (UniProt Q86YV6); conditions: at 10 µM
T1 sequence (whole entry): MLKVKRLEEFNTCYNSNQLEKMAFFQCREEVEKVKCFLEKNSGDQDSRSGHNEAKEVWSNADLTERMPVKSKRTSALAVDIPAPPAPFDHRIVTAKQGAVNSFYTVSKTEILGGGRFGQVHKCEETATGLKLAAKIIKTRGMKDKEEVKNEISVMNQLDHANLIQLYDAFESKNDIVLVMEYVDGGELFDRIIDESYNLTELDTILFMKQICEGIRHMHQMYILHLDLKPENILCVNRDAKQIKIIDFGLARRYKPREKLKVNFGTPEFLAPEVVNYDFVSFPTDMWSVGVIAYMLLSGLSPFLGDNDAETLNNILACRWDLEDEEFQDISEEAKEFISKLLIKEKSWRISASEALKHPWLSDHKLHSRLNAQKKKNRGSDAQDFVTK

[2] = biological target: Death-associated protein kinase 3 (Homo sapiens) (UniProt O43293); experiment: Selectivity interaction (Ambit KINOMEscan and KiNATiv profiling in Jurkat cells) EUB0000090b DAPK3; type: cell-based; conditions: at 1 µM
[3] = biological target: Serine/threonine-protein kinase 24 (Homo sapiens) (UniProt Q9Y6E0); experiment: Selectivity interaction (ActivX KiNativ screen (kinase selectivity in THP-1 cell lysates)) EUB0000639a STK24; type: subcellular; conditions: lysate
[4] = biological target: Serine/threonine-protein kinase PRP4 homolog (Homo sapiens) (UniProt Q13523); experiment: Selectivity interaction (ActivX KiNativ screen (kinase selectivity in THP-1 cell lysates)) EUB0000639a PRPF4; type: subcellular; conditions: lysate, at 0.04 µM
[5] = biological target: Tyrosine-protein kinase Lck (Homo sapiens, UniProt P06239); experiment: Selectivity interaction (Enzymatic assay) EUB0001199aCl LCK
[6] = biological target: SRSF protein kinase 3 (Homo sapiens) (UniProt Q9UPE1); experiment: Selectivity interaction (KinomeScan (DiscoverX)) EUB0000595a SRPK3; conditions: at 10 µM
[7] = biological target: T2, Homeodomain-interacting protein kinase 4 (Homo sapiens) (UniProt Q8NE63); experiment: Selectivity interaction (KinomeScan (DiscoverX)) EUB0001079a HIPK4; conditions: at 1 µM
T2 sequence (whole entry): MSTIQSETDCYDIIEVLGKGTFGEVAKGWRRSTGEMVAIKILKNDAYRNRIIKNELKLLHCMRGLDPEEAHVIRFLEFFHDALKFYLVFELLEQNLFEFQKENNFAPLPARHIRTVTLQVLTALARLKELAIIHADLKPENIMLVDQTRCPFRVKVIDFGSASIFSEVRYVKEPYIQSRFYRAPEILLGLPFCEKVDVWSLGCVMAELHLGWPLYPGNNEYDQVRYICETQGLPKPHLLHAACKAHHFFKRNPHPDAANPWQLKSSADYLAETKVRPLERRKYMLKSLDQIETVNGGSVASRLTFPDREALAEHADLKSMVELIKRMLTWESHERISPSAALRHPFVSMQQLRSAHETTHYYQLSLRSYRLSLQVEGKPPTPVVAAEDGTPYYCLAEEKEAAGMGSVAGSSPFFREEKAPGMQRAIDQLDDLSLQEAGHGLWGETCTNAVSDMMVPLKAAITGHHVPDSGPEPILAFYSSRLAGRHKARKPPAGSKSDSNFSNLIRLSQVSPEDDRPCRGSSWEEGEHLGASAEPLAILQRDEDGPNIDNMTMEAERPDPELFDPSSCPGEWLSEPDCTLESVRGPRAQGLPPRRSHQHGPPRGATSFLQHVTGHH

[8] = biological target: T3, Serine/threonine-protein kinase Sgk2 (Homo sapiens) (UniProt Q9HBY8); experiment: Selectivity interaction (KinomeScan (DiscoverX)) EUB0001079a SGK2; conditions: at 1 µM
T3 sequence (whole entry): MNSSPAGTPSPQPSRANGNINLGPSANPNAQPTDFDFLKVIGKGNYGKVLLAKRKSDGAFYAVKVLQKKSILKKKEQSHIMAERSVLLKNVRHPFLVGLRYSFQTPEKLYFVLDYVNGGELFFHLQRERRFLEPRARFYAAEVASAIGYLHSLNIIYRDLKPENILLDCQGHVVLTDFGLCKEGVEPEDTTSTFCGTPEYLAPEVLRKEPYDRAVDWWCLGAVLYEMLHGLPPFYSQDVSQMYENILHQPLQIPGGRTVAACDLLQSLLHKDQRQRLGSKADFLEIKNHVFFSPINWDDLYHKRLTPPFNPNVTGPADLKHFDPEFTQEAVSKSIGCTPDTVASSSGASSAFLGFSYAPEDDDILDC

[9] = biological target: T4, Mitogen-activated protein kinase 15 (Homo sapiens) (UniProt Q8TD08); experiment: Selectivity interaction (KinomeScan (DiscoverX)) EUB0000045b MAPK15
T4 sequence (whole entry): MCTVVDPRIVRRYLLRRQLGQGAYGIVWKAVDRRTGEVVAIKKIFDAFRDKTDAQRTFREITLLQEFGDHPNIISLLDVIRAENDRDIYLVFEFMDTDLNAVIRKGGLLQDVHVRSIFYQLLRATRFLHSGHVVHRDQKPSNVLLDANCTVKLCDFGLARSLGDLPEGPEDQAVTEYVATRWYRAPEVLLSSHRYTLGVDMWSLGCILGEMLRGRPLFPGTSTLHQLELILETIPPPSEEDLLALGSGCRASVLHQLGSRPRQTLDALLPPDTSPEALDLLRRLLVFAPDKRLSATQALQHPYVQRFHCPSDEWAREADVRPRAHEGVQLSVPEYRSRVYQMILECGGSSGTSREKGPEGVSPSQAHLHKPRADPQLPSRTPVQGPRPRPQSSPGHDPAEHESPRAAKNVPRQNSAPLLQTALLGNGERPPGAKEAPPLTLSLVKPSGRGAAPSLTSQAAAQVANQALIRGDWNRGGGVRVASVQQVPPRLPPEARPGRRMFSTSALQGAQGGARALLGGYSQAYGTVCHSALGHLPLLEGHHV

[10] = biological target: Proto-oncogene tyrosine-protein kinase Src (Homo sapiens, UniProt P12931); experiment: Selectivity interaction (ActivX KiNativ screen (ex vivo kinase selectivity in human PBMCs)) EUB0001619a SRC; type: cell-based; conditions: PBMC, at 1 µM
[11] = biological target: RAC-beta serine/threonine-protein kinase (Homo sapiens) (UniProt P31751); experiment: Selectivity interaction (Kinase panel (KiNativ target engagement assay in Jurkat cells)) EUB0001635a AKT2; type: cell-based; conditions: at 1 µM
[12] = biological target: Serine/threonine-protein kinase MRCK beta (Homo sapiens) (UniProt Q9Y5S2); experiment: Selectivity interaction (KinomeScan (DiscoverX)) EUB0000666a CDC42BPB; conditions: at 10 µM
[13] = biological target: G protein-coupled receptor kinase 5 (Homo sapiens, UniProt P34947); experiment: Selectivity interaction (Kinase panel (DSF assay)) EUB0001558a GRK5
Sequence of G protein-coupled receptor kinase 5 (P34947 whole entry, looked up): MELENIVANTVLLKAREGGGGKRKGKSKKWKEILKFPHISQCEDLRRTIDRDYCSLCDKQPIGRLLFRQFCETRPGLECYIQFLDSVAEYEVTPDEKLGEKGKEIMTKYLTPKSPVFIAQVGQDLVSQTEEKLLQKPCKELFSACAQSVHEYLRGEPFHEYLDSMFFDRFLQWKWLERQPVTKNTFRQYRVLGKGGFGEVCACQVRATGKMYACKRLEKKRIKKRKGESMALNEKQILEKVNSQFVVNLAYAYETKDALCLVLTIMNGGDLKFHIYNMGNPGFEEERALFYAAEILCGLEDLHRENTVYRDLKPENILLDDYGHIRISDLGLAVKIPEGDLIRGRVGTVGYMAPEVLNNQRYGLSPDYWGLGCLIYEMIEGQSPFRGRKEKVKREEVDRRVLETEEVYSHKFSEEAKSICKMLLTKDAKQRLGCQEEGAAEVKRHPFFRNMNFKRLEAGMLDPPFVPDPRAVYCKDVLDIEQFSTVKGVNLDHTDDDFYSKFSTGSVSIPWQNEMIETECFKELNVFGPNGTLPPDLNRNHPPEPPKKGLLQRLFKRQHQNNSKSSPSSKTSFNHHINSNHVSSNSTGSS

Sequence of Serine/threonine-protein kinase 24 (Homo sapiens) (Q9Y6E0 whole entry, looked up): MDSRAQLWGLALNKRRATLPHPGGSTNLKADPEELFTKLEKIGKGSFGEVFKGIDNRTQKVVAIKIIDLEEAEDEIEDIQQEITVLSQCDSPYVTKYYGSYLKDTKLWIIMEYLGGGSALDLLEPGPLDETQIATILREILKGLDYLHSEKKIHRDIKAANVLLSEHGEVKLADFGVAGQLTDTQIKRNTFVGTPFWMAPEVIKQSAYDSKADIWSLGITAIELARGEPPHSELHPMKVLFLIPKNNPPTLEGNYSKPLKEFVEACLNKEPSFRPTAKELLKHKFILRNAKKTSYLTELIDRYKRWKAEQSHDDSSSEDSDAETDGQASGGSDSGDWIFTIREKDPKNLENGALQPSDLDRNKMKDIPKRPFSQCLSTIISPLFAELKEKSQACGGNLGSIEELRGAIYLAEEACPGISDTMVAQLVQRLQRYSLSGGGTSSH
Sequence of Proto-oncogene tyrosine-protein kinase Src (P12931 2-536 limits assumed): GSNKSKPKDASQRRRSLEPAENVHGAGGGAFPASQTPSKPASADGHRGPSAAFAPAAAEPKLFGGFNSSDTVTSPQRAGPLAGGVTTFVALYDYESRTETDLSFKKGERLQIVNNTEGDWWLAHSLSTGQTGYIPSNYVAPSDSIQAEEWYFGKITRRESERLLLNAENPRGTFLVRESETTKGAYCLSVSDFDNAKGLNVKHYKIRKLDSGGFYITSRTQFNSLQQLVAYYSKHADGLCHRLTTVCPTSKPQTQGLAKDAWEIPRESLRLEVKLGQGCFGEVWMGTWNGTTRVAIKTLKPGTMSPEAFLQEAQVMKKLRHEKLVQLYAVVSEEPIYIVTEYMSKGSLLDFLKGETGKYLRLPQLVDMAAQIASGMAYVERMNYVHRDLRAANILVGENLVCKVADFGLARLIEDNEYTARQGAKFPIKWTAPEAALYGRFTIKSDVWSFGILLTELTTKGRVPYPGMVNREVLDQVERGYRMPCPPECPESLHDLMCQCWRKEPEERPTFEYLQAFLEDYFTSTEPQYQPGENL
Sequence of RAC-beta serine/threonine-protein kinase (Homo sapiens) (P31751 whole entry): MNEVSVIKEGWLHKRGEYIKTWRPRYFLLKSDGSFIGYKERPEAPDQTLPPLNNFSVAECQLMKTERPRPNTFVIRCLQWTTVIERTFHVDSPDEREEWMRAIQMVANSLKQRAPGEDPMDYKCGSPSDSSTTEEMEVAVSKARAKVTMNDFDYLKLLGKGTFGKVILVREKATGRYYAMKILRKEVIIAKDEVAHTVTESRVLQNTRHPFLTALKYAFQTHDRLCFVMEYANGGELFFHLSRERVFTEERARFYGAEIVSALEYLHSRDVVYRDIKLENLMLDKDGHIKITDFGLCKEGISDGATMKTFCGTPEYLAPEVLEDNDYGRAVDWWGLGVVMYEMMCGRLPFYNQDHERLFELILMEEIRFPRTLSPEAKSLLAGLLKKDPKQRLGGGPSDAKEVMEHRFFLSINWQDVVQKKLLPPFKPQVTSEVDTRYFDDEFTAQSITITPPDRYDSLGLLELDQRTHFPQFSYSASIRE
Sequence of Tyrosine-protein kinase Lck (P06239 whole entry): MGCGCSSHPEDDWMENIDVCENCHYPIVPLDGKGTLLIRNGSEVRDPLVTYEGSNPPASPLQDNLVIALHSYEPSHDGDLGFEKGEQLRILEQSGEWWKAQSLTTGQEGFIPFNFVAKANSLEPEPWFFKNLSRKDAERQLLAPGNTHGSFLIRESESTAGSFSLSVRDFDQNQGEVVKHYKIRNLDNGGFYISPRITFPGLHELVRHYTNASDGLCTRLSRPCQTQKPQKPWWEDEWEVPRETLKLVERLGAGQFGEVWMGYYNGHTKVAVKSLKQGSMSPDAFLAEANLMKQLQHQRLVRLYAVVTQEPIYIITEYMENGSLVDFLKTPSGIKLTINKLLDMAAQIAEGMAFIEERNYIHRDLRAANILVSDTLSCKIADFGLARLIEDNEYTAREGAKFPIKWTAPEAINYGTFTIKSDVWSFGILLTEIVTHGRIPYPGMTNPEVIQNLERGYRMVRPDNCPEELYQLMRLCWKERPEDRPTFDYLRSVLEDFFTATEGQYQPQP
Sequence of Serine/threonine-protein kinase MRCK beta (Homo sapiens) (Q9Y5S2 whole entry): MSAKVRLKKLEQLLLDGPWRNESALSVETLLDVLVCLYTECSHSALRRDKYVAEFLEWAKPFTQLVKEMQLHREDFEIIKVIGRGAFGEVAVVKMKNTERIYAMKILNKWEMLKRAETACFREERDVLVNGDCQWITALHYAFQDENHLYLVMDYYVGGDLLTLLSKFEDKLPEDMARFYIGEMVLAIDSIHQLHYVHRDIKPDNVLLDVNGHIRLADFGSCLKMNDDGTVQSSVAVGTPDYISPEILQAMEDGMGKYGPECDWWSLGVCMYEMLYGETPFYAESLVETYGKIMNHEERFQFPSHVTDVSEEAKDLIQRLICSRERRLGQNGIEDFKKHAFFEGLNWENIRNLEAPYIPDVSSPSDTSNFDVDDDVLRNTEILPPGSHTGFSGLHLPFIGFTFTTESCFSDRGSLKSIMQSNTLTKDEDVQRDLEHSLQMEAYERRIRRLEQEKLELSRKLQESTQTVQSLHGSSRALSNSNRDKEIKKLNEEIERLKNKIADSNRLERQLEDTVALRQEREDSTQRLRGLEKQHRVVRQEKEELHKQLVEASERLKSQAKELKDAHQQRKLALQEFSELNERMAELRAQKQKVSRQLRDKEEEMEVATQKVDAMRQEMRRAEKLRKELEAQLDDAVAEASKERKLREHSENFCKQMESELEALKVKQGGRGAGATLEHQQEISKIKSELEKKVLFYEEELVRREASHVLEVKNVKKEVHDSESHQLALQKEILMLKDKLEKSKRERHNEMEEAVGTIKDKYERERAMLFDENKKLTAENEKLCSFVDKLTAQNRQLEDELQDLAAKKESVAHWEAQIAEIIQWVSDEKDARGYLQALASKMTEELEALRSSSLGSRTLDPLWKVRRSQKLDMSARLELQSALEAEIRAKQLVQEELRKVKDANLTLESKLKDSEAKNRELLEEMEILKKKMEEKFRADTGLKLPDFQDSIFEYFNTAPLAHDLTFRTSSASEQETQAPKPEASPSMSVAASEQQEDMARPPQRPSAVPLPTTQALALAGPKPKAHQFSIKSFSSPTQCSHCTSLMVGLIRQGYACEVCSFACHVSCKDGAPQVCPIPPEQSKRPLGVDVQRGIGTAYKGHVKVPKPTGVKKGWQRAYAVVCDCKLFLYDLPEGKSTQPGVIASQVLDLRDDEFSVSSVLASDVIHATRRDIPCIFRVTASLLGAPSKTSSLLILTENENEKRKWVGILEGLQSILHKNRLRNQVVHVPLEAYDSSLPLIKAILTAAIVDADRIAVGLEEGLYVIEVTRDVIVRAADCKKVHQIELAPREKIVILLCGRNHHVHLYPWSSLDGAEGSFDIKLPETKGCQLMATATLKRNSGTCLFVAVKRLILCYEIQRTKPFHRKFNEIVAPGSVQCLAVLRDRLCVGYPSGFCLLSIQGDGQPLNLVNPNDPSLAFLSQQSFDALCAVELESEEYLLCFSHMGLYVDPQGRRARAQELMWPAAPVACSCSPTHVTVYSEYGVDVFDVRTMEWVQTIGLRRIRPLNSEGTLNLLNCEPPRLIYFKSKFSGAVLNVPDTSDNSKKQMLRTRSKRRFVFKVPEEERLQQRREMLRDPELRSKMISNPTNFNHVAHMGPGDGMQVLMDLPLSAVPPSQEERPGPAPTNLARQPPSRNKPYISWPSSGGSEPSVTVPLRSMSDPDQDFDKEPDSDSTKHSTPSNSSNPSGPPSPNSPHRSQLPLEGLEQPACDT
Sequence of Death-associated protein kinase 3 (Homo sapiens) (O43293 whole entry, looked up): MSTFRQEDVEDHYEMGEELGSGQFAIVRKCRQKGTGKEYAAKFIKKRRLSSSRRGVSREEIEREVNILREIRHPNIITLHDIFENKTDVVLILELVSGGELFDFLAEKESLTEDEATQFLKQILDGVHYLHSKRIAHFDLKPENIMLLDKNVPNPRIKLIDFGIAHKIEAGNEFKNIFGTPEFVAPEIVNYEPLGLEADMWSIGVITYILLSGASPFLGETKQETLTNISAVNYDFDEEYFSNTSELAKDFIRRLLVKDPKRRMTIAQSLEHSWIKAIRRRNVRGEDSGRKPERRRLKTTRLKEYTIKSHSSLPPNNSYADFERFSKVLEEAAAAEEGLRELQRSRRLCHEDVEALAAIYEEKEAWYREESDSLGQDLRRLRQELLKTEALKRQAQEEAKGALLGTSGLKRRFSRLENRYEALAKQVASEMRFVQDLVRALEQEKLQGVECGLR

Structure (SMILES): Cc1cc([C@@H](C)Nc2ccccc2C(=O)O)c2nc(N3CCOCC3)cc(=O)n2c1 [AZD-6482]
- % of control [1]: 98%

Structure (SMILES): CN(C)C/C=C/C(=O)Nc1ccc(C(=O)N2CCCC(Nc3ncc(Cl)c(-c4c[nH]c5ccccc45)n3)C2)cc1 (stereo not drawn)
- % of control [2]: 100%

Structure (SMILES): CC[C@@H]1[C@H](F)C(=O)N[C@@H]1COc1nccc2cc(C(N)=O)c(OC)cc12 [ZIMLOVISERTIB]
- % of inhibition ([3]; at 0.01 µM): 3.4%
- % of inhibition ([3]; at 0.04 µM): -19.7%
- % of inhibition ([3]; at 0.2 µM): -5.9%
- % of inhibition ([3]; at 1 µM): 6%
- % of inhibition ([3]; at 5 µM): 5.4%
- % of inhibition [4]: 16%

Structure (SMILES): CN1Cc2nccc(-c3cn(C)nc3-c3ccc(F)cc3)c2C1=O
- IC50 [5]: 10.2 µM

Structure (SMILES): COCC(=O)NC/C=C/c1ccc2ncnc(Nc3ccc(Oc4ccc(C)nc4)c(C)c3)c2c1 [CP-724714]
- % of control [6]: 100%

Structure (SMILES): Nc1cnc(N2CCc3cc(S(=O)(=O)Nc4c(F)cc(Cl)cc4F)cc(N4CCCC4=O)c32)nc1 [TP-020n]
- % of control [7]: 100%
- % of control [8]: 76%

Structure (SMILES): C=CC(=O)Nc1cc(-n2c(=O)ccc3cnc4ccc(-c5ccc(NS(C)(=O)=O)cc5)cc4c32)ccc1C
- % of control ([9]; at 1 µM): 100%
- % of control ([9]; at 10 µM): 100%

Structure (SMILES): N#Cc1cccc(-c2c[nH]c3ncnc(N4CCOCC4)c23)c1
- % of inhibition [10]: -9%

Structure (SMILES): C=CC(=O)Nc1ccc(C(=O)Nc2[nH]nc3c2CN(C(=O)N[C@H](CN(C)C)c2ccccc2)C3(C)C)cc1
- % of engagement [11]: -11.1%

Structure (SMILES): O=C(NOC[C@H](O)CO)c1ccc(F)c(F)c1Nc1ccc(I)cc1F
- % of control [12]: 83%

Structure (SMILES): CC(C)(O)[C@H](F)CN1Cc2cc(NC(=O)c3cnn4cccnc34)c(N3CCOCC3)cc2C1=O
- dTM [13]: 0.2 K
